Earlier results on two compounds are cited in patent US6699871B2, “Beta-amino heterocyclic dipeptidyl peptidase inhibitors for the treatment or prevention of diabetes” (Merck & Co., Inc., priority 2001, dated 2004).

Data set [1] has as its target T1, DP-IV (Homo sapiens, UniProt P27487).
T1 construct: GRF is rapidly degraded in plasma to GRF[3-44]

Data set [2] relates to hematopoiesis. Particulars: mouse, cyclophosphamide-induced neutropenia.

T1 sequence (P27487 whole entry): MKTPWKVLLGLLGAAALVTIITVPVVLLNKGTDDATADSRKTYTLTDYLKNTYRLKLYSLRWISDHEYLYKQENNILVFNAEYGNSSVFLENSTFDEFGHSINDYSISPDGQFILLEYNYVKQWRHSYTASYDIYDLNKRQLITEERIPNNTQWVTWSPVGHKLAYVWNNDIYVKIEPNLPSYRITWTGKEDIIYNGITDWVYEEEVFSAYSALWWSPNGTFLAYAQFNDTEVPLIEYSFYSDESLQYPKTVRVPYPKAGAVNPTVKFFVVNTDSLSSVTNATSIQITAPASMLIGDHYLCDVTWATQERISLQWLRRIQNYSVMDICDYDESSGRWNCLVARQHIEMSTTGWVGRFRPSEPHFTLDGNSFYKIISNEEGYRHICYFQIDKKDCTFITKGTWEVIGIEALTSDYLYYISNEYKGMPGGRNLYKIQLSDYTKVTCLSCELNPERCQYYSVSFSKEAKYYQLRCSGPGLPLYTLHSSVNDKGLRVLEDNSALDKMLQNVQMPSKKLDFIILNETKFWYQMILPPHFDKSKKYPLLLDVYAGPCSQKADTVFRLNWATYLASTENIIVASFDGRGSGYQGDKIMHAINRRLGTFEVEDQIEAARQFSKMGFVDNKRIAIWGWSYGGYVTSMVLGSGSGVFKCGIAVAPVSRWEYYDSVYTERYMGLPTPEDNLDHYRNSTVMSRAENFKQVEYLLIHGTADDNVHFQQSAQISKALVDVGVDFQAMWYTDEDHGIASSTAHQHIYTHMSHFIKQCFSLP

As to `CC[C@H](C)[C@H](N)C(=O)N1CCC[C@H]1C(=O)N[C@H](C(=O)O)[C@@H](C)CC` [diprotin A], the “degradation of GRF in plasma to GRF[3-44]” value in data set [1] is given as “prevented”.
For the compound `CC(C)[C@H](N)C(=O)N1CCC[C@H]1B(O)O` [Val-Boro-Pro], in data set [2], the effect on hematopoiesis entry is “stimulated hematopoiesis”.
